This is an account of results in article PMC12523843, “Kuwanon A Targeted YWHAB in Hepatocellular Carcinoma Cells to Inhibit the Raf/MEK/ERK Signaling Pathway” (Cells, 2025).

Experiment [1] deals with N-cadherin and E-cadherin. As to the kind of experiment: Western blot of EMT markers. Format: cell-based, human. Conditions: 48 h. On the procedure: (§1) Cells were harvested using a cell scrape and washed three times with PBS buffer, then lysed on ice in RIPA lysis buffer (Beyotime, Shanghai, China). Protein concentration was determined using a BCA protein assay kit (Beyotime, Shanghai, China). Subsequently, 60 µg of protein was mixed with 5× loading buffer and heated in a 100 °C water bath for 15 min. The samples were subjected to SDS-PAGE electrophoresis, followed by transfer onto a PVDF membrane (Millipore, Darmstadt, Germany). The membrane was blocked with 5% BSA for 2 h at room temperature and incubated sequentially with primary and HRP-conjugated secondary antibodies. Finally, signal detection was performed using an ECL detection system (Clinx, Shanghai, China).
A general note: In western blotting, separated proteins are transferred to a membrane and probed.

In experiment [2] the test system is HCC cells (MHCC97 H and SMMC 7721). As to the kind of experiment: Flow cytometry cell cycle analysis, result stated for HCC cells. Format: cell-based, human. As to conditions: 48 h. On the procedure: Cells were digested, centrifuged, and resuspended in PBS buffer following 48 h of treatment with either KA or DMSO. Prior to cell cycle analysis, the cells were fixed in 75% ethanol for a minimum of 24 h, followed by labeling with PI and RNase (Beyotime, Shanghai, China). Subsequently, the cells were analyzed using flow cytometry. Each group consisted of three replicates.
For orientation: A flow cytometer gives signals particle by particle.

The subject of experiment [3] is phosphorylation of MEK1/2 and ERK1/2. As to the kind of experiment: Western blot of MAPK pathway. Format: cell-based, human. On the procedure:
as §1

Experiment [4] concerns HCC cells (MHCC97 H and SMMC 7721). As to the kind of experiment: EdU staining proliferation assay. The class given is cell-based, human. On the procedure: EdU staining was employed to assess cell proliferation following the manufacturer’s guidelines (Beyotime, Shanghai, China). A total of 2 × 10^4 cells, together with KA or DMSO, were seeded into 24-well plates and cultured for 48 h. Subsequently, the cells were incubated with […] EDU for 2 h, followed by fixation with 4% PFA for 15 min, permeabilization with 0.3% Triton X-100 for 10 min, and reaction with Click reaction cocktails for 30 min. Finally, the nuclei were stained with DAPI for 30 min at room temperature before microscopic examination.

The subject of a further experiment is CDK and cyclin proteins. As to the kind of experiment: Western blot of CDK and cyclin proteins. As to conditions: 48 h, MHCC97 H and SMMC 7721. The class given is cell-based, human. On the procedure: as §1
Another experiment relates to MHCC97 H cells. As to the kind of experiment: MTT IC50 determination in MHCC97 H. Conditions: Homo sapiens, MHCC97H. The class given is cell-based, human. On the procedure:
(§2) Cell viability was assessed using MTT experiments. Cells, together with KA, were seeded into 96-well plates at a density of 2000 cells per well with three replicates per condition. DMSO was used as a control. At designated time points, 20 μL of MTT (Sigma, St. Louis, MO, USA) solution was added to each well and incubated for 3 h. After removing the culture medium, 200 μL of DMSO was added to dissolve the formazan crystals. The absorbance was then measured using a microplate reader at a wavelength of 560 nm.

Experiment [5] deals with HCC cells (MHCC97 H and SMMC 7721). As to the kind of experiment: MTT cell proliferation assay. The class given is cell-based, human. Conditions: 1–7 days. On the procedure: as §2
(Tetrazolium dyes change colour on reduction, which living cells bring about.)

A further experiment deals with SMMC 7721 cells. As to the kind of experiment: MTT IC50 determination in SMMC 7721. The class given is cell-based. Conditions: Homo sapiens, gradient concentrations, 48 h. On the procedure: as §2
The mark [6] stands for this setting: YWHAB-overexpressing HCC cells, KA 15 μM.
[7] abbreviates: YWHAB-overexpressing HCC cells, KA 15 μM, 48 h.

As usually defined, the IC50 is the concentration needed to halve the response being measured.

Read-outs that look alike come from different tables or passages of the source.

Consider `CC(C)=CCc1c(-c2ccc(O)c3c2OC(C)(C)C=C3)oc2cc(O)cc(O)c2c1=O` [KA, Kuwanon A], for which the “E-cadherin level (Western blot)” value in experiment [1] (MHCC97 H and SMMC 7721) is reported as “upregulation of E-cadherin”. Further, the “N-cadherin level (Western blot)” value in experiment [1] (MHCC97 H and SMMC 7721) was “downregulation of N-cadherin”. The “N-cadherin/E-cadherin ratio under YWHAB overexpression” value in experiment [1] (setting [6]) is given as “minimal changes”. In experiment [2] (concentration-dependent), the “cell cycle arrest (flow cytometry)” value was “significant G0/G1 phase arrest”. Also, the “G0/G1 phase arrest under YWHAB overexpression” value in experiment [2] (YWHAB-overexpressing cells, KA 15 μM) was “less KA-induced G0/G1 phase arrest”. The “KA's effects on MEK1/2 and ERK1/2 phosphorylation under YWHAB overexpression” value in experiment [3] (setting [7]) is on record as “partly abrogated”. In experiment [3] (indicated concentrations 48 h, 15 μM for 24 or 48 h), the “phosphorylation levels of MEK1/2 and ERK1/2 (Western blot)” value was “significant downregulation of the phosphorylation levels of MEK1/2 and ERK1/2”. For the same compound, the “proportion of proliferating HCC cells (EdU)” value in experiment [4] (48 h treatment) is “significant decrease in the proportion of proliferating HCC cells”. Further, the “proliferation inhibition by KA under YWHAB overexpression (EdU)” value in experiment [4] (setting [7]) was “partly reversed the proliferation inhibition”. Also, in the experiment on CDK and cyclin proteins, the “cell cycle-related proteins (Western blot)” value is listed as “downregulation of corresponding cell cycle-related proteins”. The IC50 in the experiment with MHCC97 H cells (MTT method, read-out: IC50 in MHCC97 H (screen)) was less than 20 µM; in the experiment on MHCC97 H cells (MTT, gradient concentrations, 48 h, read-out: IC50 in MHCC97 H), 8.4 µM; in the experiment on SMMC 7721 cells, 9.85 µM. Also, the “HCC cell proliferation (continuous MTT)” value in experiment [5] (10 μM and 15 μM, vs DMSO) is given as “significantly inhibited HCC cell proliferation in a dose-dependent manner”. Further, the “proliferation inhibition by KA under YWHAB overexpression (MTT)” value in experiment [5] (setting [6]) is on record as “partly reversed the proliferation inhibition”.
